Test results: ChEMBL document CHEMBL1134745, “Synthesis and evaluation of novel pseudomycin side-chain analogues. Part 3” (2001)
In brackets after ≈: the same amount, converted by molar mass. Positions of bridges follow the written chain, without caps; N, C: chain ends. Non-standard residues stand in square brackets, D forms with d. Residues, ends and D or L forms follow the SMILES beside them. *: point of attachment. Tetradecanoyl(3R-OH) = CCCCCCCCCCC[C@@H](O)CC(=O)*; Asp(3S-OH) = N[C@H](C(=O)O)[C@H](O)C(=O)O; Thr(4-Cl) = N[C@H](C(=O)O)[C@H](O)CCl; aThr = C[C@H](O)[C@H](N)C(=O)O; dDab = NCC[C@@H](N)C(=O)O; Dab = NCC[C@H](N)C(=O)O; Dhb = C/C=C(\N)C(=O)O

Columns and labels:
Aspergillus fumigatus = test: Lowest concentration required to inhibit 90-100% in vitro growth of Aspergillus fumigatus; assay type: functional
Mus musculus [1] = species on record: Mus musculus; test: Ratio of the drug concentration required to achieve 50% survival of fungal infection compared with untreated animals to that of ED50 of PSB; assay type: functional
Candida albicans = test: Lowest concentration required to inhibit 90-100% in vitro growth of Candida albicans; assay type: functional
Cryptococcus neoformans = test: Lowest concentration required to inhibit 90-100% in vitro growth of Cryptococcus neoformans
Mus musculus [2] = test: Tail vein toxicity at 20 mg/kg dose was determined in mice;Positive; assay type: functional, organism-based; parameters: dose 20 mg/kg
Mus musculus [3] = species on record: Mus musculus; test: Ratio of the drug concentration required to achieve 50% survival of fungal infection compared with untreated animals to that of ED50 of PSB;value in range of 2-7; assay type: functional

Structure (SMILES)	MIC (Aspergillus fumigatus) [µg/mL]	Ratio (Mus musculus [1])	MIC (Candida albicans) [µg/mL]	MIC (Cryptococcus neoformans) [µg/mL]	Toxicity (Mus musculus [2])	Ratio (Mus musculus [3])
C/C=C1\NC(=O)[C@H]([C@@H](C)O)NC(=O)[C@H](CCN)NC(=O)[C@H](CCCCN)NC(=O)[C@H](CC(=O)NC2CC2)NC(=O)[C@@H](CCN)NC(=O)[C@@H](NC(=O)C[C@@H](O)CCCCCCCCCCC)COC(=O)[C@H]([C@H](O)CCl)NC(=O)[C@H]([C@H](O)C(=O)O)NC1=O	> 20	<5	0.156 (≈ 0.125 µM)	< 0.01		
C/C=C1/NC(=O)[C@H]([C@@H](C)O)NC(=O)[C@H](CCNC(=O)OCOC(=O)C(C)(C)C)NC(=O)[C@H](CCCCNC(=O)OCOC(=O)C(C)(C)C)NC(=O)[C@H](CC(=O)O)NC(=O)[C@@H](CCNC(=O)OCOC(=O)C(C)(C)C)NC(=O)[C@@H](NC(=O)C[C@@H](O)CCCCCCCCCCCCCCC)COC(=O)[C@H]([C@H](O)CCl)NC(=O)[C@H]([C@H](O)C(=O)O)NC1=O	> 20	>20	> 20	> 20		
C/C=C1\NC(=O)[C@H]([C@@H](C)O)NC(=O)[C@H](CCN)NC(=O)[C@H](CCCCN)NC(=O)[C@H](CC(=O)O)NC(=O)[C@@H](CCN)NC(=O)[C@@H](NC(=O)C[C@H](O)CCCCCCCCCCCCCCC)COC(=O)[C@H]([C@H](O)CCl)NC(=O)[C@H]([C@H](O)C(=O)O)NC1=O	5 (≈ 3.96 µM)	>20	1.25 (≈ 0.989 µM)	0.02 (≈ 0.0158 µM)		
C/C=C1\NC(=O)[C@H]([C@@H](C)O)NC(=O)[C@H](CCN)NC(=O)[C@H](CCCCN)NC(=O)[C@H](CC(=O)OC)NC(=O)[C@@H](CCN)NC(=O)[C@@H](NC(=O)C[C@@H](O)CCCCCCCCCCC)COC(=O)[C@H]([C@H](O)CCl)NC(=O)[C@H]([C@H](O)C(=O)OC)NC1=O	20 (≈ 16.2 µM)	7.8	2.5 (≈ 2.02 µM)	0.01 (≈ 0.00809 µM)		
C/C=C1\NC(=O)[C@H]([C@@H](C)O)NC(=O)[C@H](CCNC(=O)OCc2oc(=O)oc2C)NC(=O)[C@H](CCCCNC(=O)OCc2oc(=O)oc2C)NC(=O)[C@H](CC(=O)O)NC(=O)[C@@H](CCNC(=O)OCc2oc(=O)oc2C)NC(=O)[C@@H](NC(=O)C[C@@H](O)CCCCCCCCCCCCCCC)COC(=O)[C@H]([C@H](O)CCl)NC(=O)[C@H]([C@H](O)C(=O)O)NC1=O	> 20	>19	> 20	> 20		
C/C=C1\NC(=O)[C@H]([C@H](C)O)NC(=O)[C@H](CCN)NC(=O)[C@H](CCCCN)NC(=O)[C@H](CC(=O)O)NC(=O)[C@@H](CCN)NC(=O)[C@@H](NC(=O)C[C@H](O)CCCCCCCCCCCCCCC)COC(=O)[C@H]([C@H](O)CCl)NC(=O)[C@H]([C@H](O)C(=O)O)NC1=O	5 (≈ 3.96 µM)	>20	0.625 (≈ 0.495 µM)	0.01 (≈ 0.00791 µM)	Positive	
C/C=C1\NC(=O)[C@H]([C@@H](C)O)NC(=O)[C@H](CCNC(=O)OCOC(=O)C(C)C)NC(=O)[C@H](CCCCNC(=O)OCOC(=O)C(C)C)NC(=O)[C@H](CC(=O)O)NC(=O)[C@@H](CCNC(=O)OCOC(=O)C(C)C)NC(=O)[C@@H](NC(=O)C[C@@H](O)CCCCCCCCCCCCCCC)COC(=O)[C@H]([C@H](O)CCl)NC(=O)[C@H]([C@H](O)C(=O)O)NC1=O	> 20	>14	> 20	> 20		
C/C=C1\NC(=O)[C@H]([C@@H](C)O)NC(=O)[C@H](CCNC(=O)OCOC(=O)C(C)(C)C)NC(=O)[C@H](CCCCNC(=O)OCOC(=O)C(C)(C)C)NC(=O)[C@H](CC(=O)O)NC(=O)[C@@H](CCNC(=O)OCOC(=O)C(C)(C)C)NC(=O)[C@@H](NC(=O)C[C@@H](O)CCCCCCCCCCC)COC(=O)[C@H]([C@H](O)CCl)NC(=O)[C@H]([C@H](O)C(=O)O)NC1=O	> 20	6.4	> 20	> 20		
C/C=C1\NC(=O)[C@H]([C@@H](C)O)NC(=O)[C@H](CCNC(=O)OCOC(=O)C(C)C)NC(=O)[C@H](CCCCNC(=O)OCOC(=O)C(C)C)NC(=O)[C@H](CC(=O)O)NC(=O)[C@@H](CCNC(=O)OCOC(=O)C(C)C)NC(=O)[C@@H](NC(=O)C[C@@H](O)CCCCCCCCCCC)COC(=O)[C@H]([C@H](O)CCl)NC(=O)[C@H]([C@H](O)C(=O)O)NC1=O	> 20	11.4	> 20	> 20		
C/C=C1\NC(=O)[C@H]([C@@H](C)O)NC(=O)[C@H](CCN)NC(=O)[C@H](CCCCN)NC(=O)[C@H](CC(=O)OC)NC(=O)[C@@H](CCN)NC(=O)[C@@H](NC(=O)C[C@@H](O)CCCCCCCCCCCCCCC)COC(=O)[C@H]([C@H](O)CCl)NC(=O)[C@H]([C@H](O)C(=O)OC)NC1=O	20 (≈ 15.5 µM)	>20	5 (≈ 3.87 µM)	1.25 (≈ 0.968 µM)		
C/C=C1\NC(=O)[C@H]([C@H](C)O)NC(=O)[C@H](CCN)NC(=O)[C@H](CCCCN)NC(=O)[C@H](CC(=O)O)NC(=O)[C@@H](CCN)NC(=O)[C@@H](NC(=O)C[C@H](O)CCCCCCCCCCC)COC(=O)[C@H]([C@H](O)CCl)NC(=O)[C@H]([C@H](O)C(=O)O)NC1=O [PSEUDOMYCIN B] ({Tetradecanoyl(3R-OH)}-S[dDab]DK[Dab][aThr][Dhb][Asp(3S-OH)][Thr(4-Cl)]; ester 1-C)	20 (≈ 16.6 µM)		0.625 (≈ 0.517 µM)	0.039 (≈ 0.0323 µM)	Positive	7
C/C=C1\NC(=O)[C@H]([C@@H](C)O)NC(=O)[C@H](CCN)NC(=O)[C@H](CCCCN)NC(=O)[C@H](CC(=O)NCCN(C)C)NC(=O)[C@@H](CCN)NC(=O)[C@@H](NC(=O)C[C@@H](O)CCCCCCCCCCC)COC(=O)[C@H]([C@H](O)CCl)NC(=O)[C@H]([C@H](O)C(=O)O)NC1=O	5 (≈ 3.91 µM)	<5	0.156 (≈ 0.122 µM)	< 0.01		
C/C=C1\NC(=O)[C@H]([C@@H](C)O)NC(=O)[C@H](CCNC(=O)OCc2oc(=O)oc2C)NC(=O)[C@H](CCCCNC(=O)OCc2oc(=O)oc2C)NC(=O)[C@H](CC(=O)O)NC(=O)[C@@H](CCNC(=O)OCc2oc(=O)oc2C)NC(=O)[C@@H](NC(=O)C[C@@H](O)CCCCCCCCCCC)COC(=O)[C@H]([C@H](O)CCl)NC(=O)[C@H]([C@H](O)C(=O)O)NC1=O	> 20	7.8	> 20	> 20		
